Data on 20 molecules can be found in patent publication US20260217697A1, “COMPOUNDS COMPRISING HETEROARYL RINGS AND COMPOSITIONS AND METHODS THEREOF” (lonGen Therapeutics Co., Ltd., priority 2022, published 2026).

Bounds are passed on as bounds.

The target in the experiment is T1, hTRPV3 (Homo sapiens, UniProt Q8NET8).
T1 construct: The commercially available plasmid with the full-length cDNA of hTRPV3 (791 aa) (NM_001258205.2); host or cells: HEK293T
T1 sequence (Q8NET8 1-791 isoform Q8NET8-2): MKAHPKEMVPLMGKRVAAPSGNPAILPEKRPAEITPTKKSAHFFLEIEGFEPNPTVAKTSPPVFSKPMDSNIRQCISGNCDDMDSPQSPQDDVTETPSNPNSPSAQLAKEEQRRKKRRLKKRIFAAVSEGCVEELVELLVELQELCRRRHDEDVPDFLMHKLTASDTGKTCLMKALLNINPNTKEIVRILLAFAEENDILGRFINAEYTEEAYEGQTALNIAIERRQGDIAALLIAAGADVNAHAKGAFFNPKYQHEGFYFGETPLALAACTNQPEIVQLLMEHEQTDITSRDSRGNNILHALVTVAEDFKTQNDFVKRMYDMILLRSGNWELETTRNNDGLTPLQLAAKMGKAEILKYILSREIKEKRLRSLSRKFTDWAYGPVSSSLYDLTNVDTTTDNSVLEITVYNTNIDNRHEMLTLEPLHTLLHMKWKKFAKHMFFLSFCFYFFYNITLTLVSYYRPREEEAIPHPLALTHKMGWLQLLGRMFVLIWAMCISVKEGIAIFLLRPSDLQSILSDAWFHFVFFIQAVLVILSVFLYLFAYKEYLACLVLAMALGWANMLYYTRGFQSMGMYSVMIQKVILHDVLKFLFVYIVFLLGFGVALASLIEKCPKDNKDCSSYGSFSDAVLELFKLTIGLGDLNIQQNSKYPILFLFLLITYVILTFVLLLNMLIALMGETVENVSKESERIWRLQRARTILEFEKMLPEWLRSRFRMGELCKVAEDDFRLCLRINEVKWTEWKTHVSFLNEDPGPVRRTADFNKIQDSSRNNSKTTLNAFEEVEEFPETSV
Nature of the experiment: Whole-cell patch-clamp recording of hTRPV3 current in transfected HEK293T cells (2-APB induced). The following applies: current induced by 300 μM 2-APB, compounds tested up to 10 μM, room temperature. The experiment is classed as cell-based. On the procedure: Various technologies can be utilized to assess TRPV3 activation in accordance with the present disclosure. For example, in some embodiments, compounds are assessed in in vitro patch clamp experiments. Certain useful procedures are described herein as examples.
In some embodiments, whole-cell patch-clamp recordings were used to detect the current through hTRPV3 channels in the HEK293T cell line transfected with hTRPV3 cDNA and evaluate the exact blocking effect of compounds on hTRPV3. In some embodiments, a perfusion system was adopted to control the extracellular solution, including the addition of the agonist and different antagonists.
HEK293T cells were cultured in a Dulbecco's modified Eagle's medium containing 10% fetal bovine serum (Thermo Scientific) and 1% penicillin/streptomycin (Thermo Scientific) at 37° C. with 5% CO2. The commercially available plasmid with the full-length cDNA of hTRPV3 (791 aa) (NM_001258205.2) was purchased from OriGene Technologies. The transfection of hTRPV3 plasmids was conducted using Lipofectamine™ 3000 following the manufacturer's instructions (Invitrogen).
Whole-cell patch-clamp experiments were performed 18 h post-transfection, using a MultiClamp 700B amplifier driven by pClamp 11 software (Molecular Devices). In order to achieve good single-cell physical separation, HEK293T cells with hTRPV3 expression were digested and then re-plated at low density on glass coverslips. Electrodes were pulled from borosilicate glass with a P-97 micropipette puller (Sutter Instruments) and those with resistances of 3-5 MΩ are used for experiments. In some embodiments, an Ag—AgCl wire was used as a reference electrode and signals are filtered using a 2.9 kHz low-pass Bessel filter. Membrane potential was held at 0 mV. For recording of agonist-induced activation and inhibition by different test compounds, currents were elicited by a protocol consisting of a 400-ms step to +80 mV, followed by a 400-ms step to −80 mV at 2-s intervals. both pipette and bath solutions contained 130 mM NaCl, 0.3 mM EDTA, and 3 mM HEPES (buffered to pH 7.4 with NaOH). All recordings were made at room temperature.
All patch-clamp recordings were analyzed using the Clampfit software and GraphPad Prism 6.0 software. Specifically, data are analyzed by calculating the degree of current amplitude after the test compound addition compared with the unblocked agonist-induced current amplitude. The resulting blocking percentage at each concentration was used to make a concentration-response analysis and fitted to the Hill equation: blocking percentage=minimum blocking percentage+ (maximum blocking percentage-minimum blocking percentage)/(1+10^(Hill slope* […])). The minimum blocking percentage is 0% and maximum blocking percentage is 100%, while the Hill slope and the IC50 were determined as the curve fitting routine. Compounds of interest were tested against hTRPV3 at concentrations up to 10 μM, and certain data was used to estimate IC50 as described herein.
As for `COc1ncnc(OC)c1C(=O)Nc1nc2c(s1)C(C)(c1ccccc1)Oc1cc(C(F)(F)F)ccc1-2` (centres unmarked) [compound 25, 4,6-dimethoxy-N-(4-methyl-4-phenyl-7-(trifluoromethyl)-4H-chromeno[4,3-d]thiazol-2-yl)pyrimidine-5-carboxamide], the half-maximal inhibitory concentration (IC50) was less than 100 nM.

For `COc1ncnc(OC)c1C(=O)Nc1nc2c(s1)C1(CCCCCC1)Oc1cc(C(F)(F)F)ccc1-2` [compound 26, 4,6-dimethoxy-N-(7-(trifluoromethyl)spiro[chromeno[4,3-d]thiazole-4,1′-cycloheptan]-2-yl)pyrimidine-5-carboxamide], the IC50 fell in the range of 100 to 1000 nM.

Turning to `COc1ncnc(OC)c1C(=O)Nc1nc2c(s1)C1(CCN(C(=O)OC(C)(C)C)CC1)Oc1cc(C(F)(F)F)ccc1-2` [compound 27, tert-butyl 2-(4,6-dimethoxypyrimidine-5-carboxamido)-7-(trifluoromethyl)spiro[chromeno[4,3-d]thiazole-4,4′-piperidine]-1′-carboxylate], the half-maximal inhibitory concentration (IC50) is less than 100 nM.

`C=CCCC1Oc2cc(C(F)(F)F)ccc2-c2nc(NC(=O)c3c(OC)ncnc3OC)sc21` (centres unmarked) [compound 28, N-(4-(but-3-en-1-yl)-7-(trifluoromethyl)-4H-chromeno[4,3-d]thiazol-2-yl)-4,6-dimethoxypyrimidine-5-carboxamide]: the IC50 fell in the range of 100 to 1000 nM.

The molecule `COc1ncnc(OC)c1C(=O)Nc1nc2c(s1)C(CCc1ccccc1)Oc1cc(C(F)(F)F)ccc1-2` (centres unmarked) [compound 29, 4,6-dimethoxy-N-(4-phenethyl-7-(trifluoromethyl)-4H-chromeno[4,3-d]thiazol-2-yl)pyrimidine-5-carboxamide] displayed an IC50 of 100 to 1000 nM.

Molecule `COc1ncnc(OC)c1C(=O)Nc1nc2c(s1)C1(CCC(OCc3ccccc3)CC1)Oc1cc(C(F)(F)F)ccc1-2` (centres unmarked) [compound 30, N-(4′-(benzyloxy)-7-(trifluoromethyl)spiro[chromeno[4,3-d]thiazole-4,1′-cyclohexan]-2-yl)-4,6-dimethoxypyrimidine-5-carboxamide] registered a 50% inhibitory concentration (IC50) of 100 to 1000 nM.

For the molecule `CCC1CCC2(CC1)Oc1cc(C(F)(F)F)ccc1-c1nc(NC(=O)c3c(OC)ncnc3OC)sc12` (centres unmarked) [compound 31, N-(4′-ethyl-7-(trifluoromethyl)spiro[chromeno[4,3-d]thiazole-4,1′-cyclohexan]-2-yl)-4,6-dimethoxypyrimidine-5-carboxamide], the IC50 is 100 to 1000 nM.

In the case of `CCOC(=O)C1CCC2(CC1)Oc1cc(C(F)(F)F)ccc1-c1nc(NC(=O)c3c(OC)ncnc3OC)sc12` (centres unmarked) [compound 32, ethyl 2-(4,6-dimethoxypyrimidine-5-carboxamido)-7-(trifluoromethyl)spiro[chromeno[4,3-d]thiazole-4,1′-cyclohexane]-4′-carboxylate], the concentration for half-maximal inhibition (IC50) is less than 100 nM.

`COc1ncnc(OC)c1C(=O)Nc1nc2c(s1)C1(CCC(C)CC1)Oc1cc(C(F)(F)F)ccc1-2` (centres unmarked) [compound 33, 4,6-dimethoxy-N-(4′-methyl-7-(trifluoromethyl)spiro[chromeno[4,3-d]thiazole-4,1′-cyclohexan]-2-yl)pyrimidine-5-carboxamide] returned an IC50 of 100 to 1000 nM.

Regarding `COc1ncnc(OC)c1C(=O)Nc1nc2c(s1)C1(CCC(C)(C)CC1)Oc1cc(C(F)(F)F)ccc1-2` [compound 34, N-(4′,4′-dimethyl-7-(trifluoromethyl)spiro[chromeno[4,3-d]thiazole-4,1′-cyclohexan]-2-yl)-4,6-dimethoxypyrimidine-5-carboxamide], the 50% inhibitory concentration (IC50) fell in the range of 100 to 1000 nM.

Molecule `COc1ncnc(OC)c1C(=O)Nc1nc2c(s1)C1(CCCC(C)(C)C1)Oc1cc(C(F)(F)F)ccc1-2` (centres unmarked) [compound 35, N-(3′,3′-dimethyl-7-(trifluoromethyl)spiro[chromeno[4,3-d]thiazole-4,1′-cyclohexan]-2-yl)-4,6-dimethoxypyrimidine-5-carboxamide] came in with a half-maximal inhibitory concentration (IC50) of 100 to 1000 nM.

`COc1ncnc(OC)c1C(=O)Nc1nc2c(s1)C1(CCC(c3ccc(C)cc3)CC1)Oc1cc(C(F)(F)F)ccc1-2` (centres unmarked) [compound 36, 4,6-dimethoxy-N-(4′-(p-tolyl)-7-(trifluoromethyl)spiro[chromeno[4,3-d]thiazole-4,1′-cyclohexan]-2-yl)pyrimidine-5-carboxamide] displayed an IC50 of 100 to 1000 nM.

In the case of `COc1ncnc(OC)c1C(=O)Nc1nc2c(s1)C1(CC(C)CC(C)C1)Oc1cc(C(F)(F)F)ccc1-2` (centres unmarked) [compound 37, N-(3′,5′-dimethyl-7-(trifluoromethyl)spiro[chromeno[4,3-d]thiazole-4,1′-cyclohexan]-2-yl)-4,6-dimethoxypyrimidine-5-carboxamide], the IC50 is 100 to 1000 nM.

The molecule `CCC1CCCC2(C1)Oc1cc(C(F)(F)F)ccc1-c1nc(NC(=O)c3c(OC)ncnc3OC)sc12` (centres unmarked) [compound 38, N-(3′-ethyl-7-(trifluoromethyl)spiro[chromeno[4,3-d]thiazole-4,1′-cyclohexan]-2-yl)-4,6-dimethoxypyrimidine-5-carboxamide] returned a half-inhibitory concentration (IC50) of 100 to 1000 nM.

Regarding `COc1ncnc(OC)c1C(=O)Nc1nc2c(s1)C1(CCCC(NC(=O)OCc3ccccc3)C1)Oc1cc(C(F)(F)F)ccc1-2` (centres unmarked) [compound 39, benzyl(2-(4,6-dimethoxypyrimidine-5-carboxamido)-7-(trifluoromethyl)spiro[chromeno[4,3-d]thiazole-4,1′-cyclohexan]-3′-yl)carbamate], the IC50 lay in the range of 100 to 1000 nM.

`COc1ncnc(OC)c1C(=O)Nc1nc2c(s1)C1(CCC(F)(F)CC1)Oc1cc(C(F)(F)F)ccc1-2` [compound 40, N-(4′,4′-difluoro-7-(trifluoromethyl)spiro[chromeno[4,3-d]thiazole-4,1′-cyclohexan]-2-yl)-4,6-dimethoxypyrimidine-5-carboxamide] gave an IC50 of 100 to 1000 nM.

Regarding `CCCCCCC1(C)Oc2cc(C(F)(F)F)ccc2-c2nc(NC(=O)c3c(OC)ncnc3OC)sc21` (centres unmarked) [compound 41, N-(4-hexyl-4-methyl-7-(trifluoromethyl)-4H-chromeno[4,3-d]thiazol-2-yl)-4,6-dimethoxypyrimidine-5-carboxamide], the concentration for half-maximal inhibition (IC50) is 100 to 1000 nM.

Molecule `COc1ncnc(OC)c1C(=O)Nc1nc2c(s1)C(C)(CCc1ccccc1)Oc1cc(C(F)(F)F)ccc1-2` (centres unmarked) [compound 42, 4,6-dimethoxy-N-(4-methyl-4-phenethyl-7-(trifluoromethyl)-4H-chromeno[4,3-d]thiazol-2-yl)pyrimidine-5-carboxamide] gave an IC50 of 100 to 1000 nM.

Molecule `C=CCCOc1ncnc(OC)c1C(=O)Nc1nc2c(s1)C1(CCCCC1)Oc1cc(C(F)(F)F)ccc1-2` [compound 43, 4-(but-3-en-1-yloxy)-6-methoxy-N-(7-(trifluoromethyl)spiro[chromeno[4,3-d]thiazole-4,1′-cyclohexan]-2-yl)pyrimidine-5-carboxamide] showed an IC50 of 100 to 1000 nM.

The molecule `C=CCCC1(C)Oc2cc(C(F)(F)F)ccc2-c2nc(NC(=O)c3c(OC)ncnc3OC)sc21` (centres unmarked) [compound 44, N-(4-(but-3-en-1-yl)-4-methyl-7-(trifluoromethyl)-4H-chromeno[4,3-d]thiazol-2-yl)-4,6-dimethoxypyrimidine-5-carboxamide] had a half-inhibitory concentration (IC50) of less than 100 nM.
